Results as given in patent publication US9695155B2, “Herbicidal substituted pyrimidinyloxy benzene compounds” (E. I. DU PONT DE NEMOURS AND COMPANY, priority 2013, dated 2017).

How the values were obtained:
[1] = test system: morningglory; experiment: Test A preemergence; assay type: in vivo, Ipomoea spp.; conditions: for Morningglory plant response rating (0 to 100 scale): 125 g ai/ha; for Morningglory plant response rating: 500 g ai/ha, 0 to 100 scale where 0 is no effect and 100 is complete control
Outline: (§1)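 Greenhouse pot test, loam/sand soil. Formulation: non-phytotoxic solvent mix plus surfactant. Pre: directed spray onto soil after sowing. Post: plants at 1–2 leaf, 2–10 cm. Rated visually vs untreated controls at ~10 d, 0 (no effect) to 100 (complete control).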

[2] = test system: wheat; experiment: Test A postemergence; assay type: in vivo, Triticum aestivum; conditions: 0 to 100 scale where 0 is no effect and 100 is complete control; for Wheat plant response rating: 125 g ai/ha; for Plant response rating, Wheat: 500 g ai/ha
Outline: as §1

[3] = test system: morningglory; experiment: Test A postemergence; assay type: in vivo, Ipomoea spp.; conditions: 0 to 100 scale where 0 is no effect and 100 is complete control; for Morningglory plant response rating: 125 g ai/ha; for Plant response rating, Morningglory: 500 g ai/ha
Outline: as §1

[4] = test system: barnyardgrass; experiment: Test A postemergence; assay type: in vivo, Echinochloa crus-galli; conditions: 0 to 100 scale where 0 is no effect and 100 is complete control; for Barnyardgrass plant response rating: 125 g ai/ha; for Plant response rating, Barnyardgrass: 500 g ai/ha
Outline: as §1

[5] = test system: barnyardgrass; experiment: Test B flooded paddy test; assay type: in vivo, Echinochloa crus-galli; conditions: Flood, 250 g ai/ha; 0 to 100 scale where 0 is no effect and 100 is complete control
Outline: (§2)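 Plants at 2-leaf stage; pots flooded to 3 cm above soil and compound applied directly into paddy water, depth held throughout. After 13 to 15 days in greenhouse, visual rating versus controls on 0 (no effect) to 100 (complete control) scale.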

[6] = test system: large (Lg) crabgrass; experiment: Test A preemergence; assay type: in vivo, Digitaria sanguinalis; conditions: for Crabgrass, Large plant response rating: 500 g ai/ha, 0 to 100 scale where 0 is no effect and 100 is complete control; for Crabgrass, Large plant response rating (0 to 100 scale): 125 g ai/ha
Outline: as §1

[7] = test system: corn; experiment: Test A postemergence; assay type: in vivo, Zea mays; conditions: 0 to 100 scale where 0 is no effect and 100 is complete control; for Corn plant response rating: 125 g ai/ha; for Plant response rating, Corn: 500 g ai/ha
Outline: as §1

[8] = test system: giant foxtail; experiment: Test A postemergence; assay type: in vivo, Setaria faberii; conditions: 0 to 100 scale where 0 is no effect and 100 is complete control; for Foxtail, Giant plant response rating: 125 g ai/ha; for Plant response rating, Foxtail, Giant: 500 g ai/ha
Outline: as §1

[9] = test system: giant foxtail; experiment: Test A preemergence; assay type: in vivo, Setaria faberii; conditions: for Foxtail, Giant plant response rating (0 to 100 scale): 125 g ai/ha; for Foxtail, Giant plant response rating: 500 g ai/ha, 0 to 100 scale where 0 is no effect and 100 is complete control
Outline: as §1

[10] = test system: barnyardgrass; experiment: Test A preemergence; assay type: in vivo, Echinochloa crus-galli; conditions: for Barnyardgrass plant response rating (0 to 100 scale, 0 is no effect, 100 is complete control): 125 g ai/ha; for Barnyardgrass plant response rating: 500 g ai/ha, 0 to 100 scale where 0 is no effect and 100 is complete control
Outline: as §1

[11] = test system: corn; experiment: Test A preemergence; assay type: in vivo, Zea mays; conditions: for Corn plant response rating (0 to 100 scale): 125 g ai/ha; for Corn plant response rating: 500 g ai/ha, 0 to 100 scale where 0 is no effect and 100 is complete control
Outline: as §1

[12] = test system: wheat; experiment: Test A preemergence; assay type: in vivo, Triticum aestivum; conditions: for Wheat plant response rating (0 to 100 scale): 125 g ai/ha; for Wheat plant response rating: 500 g ai/ha, 0 to 100 scale where 0 is no effect and 100 is complete control
Outline: as §1

[13] = test system: velvetleaf; experiment: Test A preemergence; assay type: in vivo, Abutilon theophrasti; conditions: for Velvetleaf plant response rating (0 to 100 scale): 125 g ai/ha; for Velvetleaf plant response rating: 500 g ai/ha, 0 to 100 scale where 0 is no effect and 100 is complete control
Outline: as §1

[14] = test system: pigweed; experiment: Test A postemergence; assay type: in vivo, Amaranthus retroflexus; conditions: 0 to 100 scale where 0 is no effect and 100 is complete control; for Pigweed plant response rating: 125 g ai/ha; for Plant response rating, Pigweed: 500 g ai/ha
Outline: as §1

[15] = test system: sedge, umbrella; experiment: Test B flooded paddy test; assay type: in vivo, Cyperus difformis; conditions: Flood, 250 g ai/ha; 0 to 100 scale where 0 is no effect and 100 is complete control
Outline: as §2

[16] = test system: Heteranthera limosa; experiment: Test B flooded paddy test; assay type: in vivo; conditions: Flood, 250 g ai/ha; 0 to 100 scale where 0 is no effect and 100 is complete control
Outline: as §2

[17] = test system: large (Lg) crabgrass; experiment: Test A postemergence; assay type: in vivo, Digitaria sanguinalis; conditions: 0 to 100 scale where 0 is no effect and 100 is complete control; for Crabgrass, Large plant response rating: 125 g ai/ha; for Plant response rating, Crabgrass, Large: 500 g ai/ha
Outline: as §1

[18] = test system: velvetleaf; experiment: Test A postemergence; assay type: in vivo, Abutilon theophrasti; conditions: 0 to 100 scale where 0 is no effect and 100 is complete control; for Velvetleaf plant response rating: 125 g ai/ha; for Plant response rating, Velvetleaf: 500 g ai/ha
Outline: as §1

[19] = test system: rice; experiment: Test B flooded paddy test; assay type: in vivo, Oryza sativa; conditions: Flood, 250 g ai/ha; 0 to 100 scale where 0 is no effect and 100 is complete control
Outline: as §2

[20] = test system: pigweed; experiment: Test A preemergence; assay type: in vivo, Amaranthus retroflexus; conditions: for Pigweed plant response rating (0 to 100 scale): 125 g ai/ha; for Pigweed plant response rating: 500 g ai/ha, 0 to 100 scale where 0 is no effect and 100 is complete control
Outline: as §1

SMILES	Morningglory plant response rating (0 to 100 scale) [1]	Morningglory plant response rating [1]	Wheat plant response rating [2]	Plant response rating, Wheat [2]	Morningglory plant response rating [3]	Plant response rating, Morningglory [3]	Barnyardgrass plant response rating [4]	Plant response rating, Barnyardgrass [4]	Plant response rating, Barnyardgrass [5]	Crabgrass, Large plant response rating [6]	Corn plant response rating [7]	Plant response rating, Corn [7]	Foxtail, Giant plant response rating [8]	Plant response rating, Foxtail, Giant [8]	Foxtail, Giant plant response rating (0 to 100 scale) [9]	Foxtail, Giant plant response rating [9]	Barnyardgrass plant response rating (0 to 100 scale, 0 is no effect, 100 is complete control) [10]	Barnyardgrass plant response rating [10]	Corn plant response rating (0 to 100 scale) [11]	Corn plant response rating [11]	also measured
Clc1cnc(Oc2cccc(-c3ccccc3)c2-n2cc(Br)cn2)nc1 [Compound 195]	0	10	0	0	30	70	0	20	0	70	0	20	10	50	10	80	0	0	0	0	Wheat plant response rating (0 to 100 scale) [12]: 0; Wheat plant response rating [12]: 0; Velvetleaf plant response rating (0 to 100 scale) [13]: 0; Velvetleaf plant response rating [13]: 20; Pigweed plant response rating [14]: 60; Plant response rating, Pigweed [14]: 80; Plant response rating, Sedge, Umbrella [15]: 30; Plant response rating, Ducksalad [16]: 20; Crabgrass, Large plant response rating [17]: 40; Plant response rating, Crabgrass, Large [17]: 60; Velvetleaf plant response rating [18]: 50; Plant response rating, Velvetleaf [18]: 100; Plant response rating, Rice [19]: 20; Pigweed plant response rating (0 to 100 scale) [20]: 0; Pigweed plant response rating [20]: 40
C=C(C)c1cccc(Oc2ncc(Cl)cn2)c1-n1cc(Br)cn1 [Compound 198]	0	10	0	10	60	70	30	50	0	100	20	20	30	80	70	100	50	80	0	0	Crabgrass, Large plant response rating (0 to 100 scale) [6]: 80; Wheat plant response rating (0 to 100 scale) [12]: 0; Wheat plant response rating [12]: 0; Velvetleaf plant response rating (0 to 100 scale) [13]: 40; Velvetleaf plant response rating [13]: 80; Pigweed plant response rating [14]: 90; Plant response rating, Pigweed [14]: 100; Plant response rating, Sedge, Umbrella [15]: 20; Plant response rating, Ducksalad [16]: 25; Crabgrass, Large plant response rating [17]: 60; Plant response rating, Crabgrass, Large [17]: 90; Velvetleaf plant response rating [18]: 90; Plant response rating, Velvetleaf [18]: 100; Plant response rating, Rice [19]: 0; Pigweed plant response rating (0 to 100 scale) [20]: 100; Pigweed plant response rating [20]: 100
COc1ccc(Br)c(-n2cc(Br)cn2)c1Oc1ncc(Cl)cn1 [Compound 201]	0	0	0	0	20	20	0	10	0	40	0	0	0	40	20	50	0	0	0	0	Crabgrass, Large plant response rating (0 to 100 scale) [6]: 20; Wheat plant response rating (0 to 100 scale) [12]: 0; Wheat plant response rating [12]: 0; Velvetleaf plant response rating (0 to 100 scale) [13]: 0; Velvetleaf plant response rating [13]: 0; Pigweed plant response rating [14]: 20; Plant response rating, Pigweed [14]: 40; Plant response rating, Sedge, Umbrella [15]: 20; Plant response rating, Ducksalad [16]: 40; Crabgrass, Large plant response rating [17]: 0; Plant response rating, Crabgrass, Large [17]: 30; Velvetleaf plant response rating [18]: 30; Plant response rating, Velvetleaf [18]: 70; Plant response rating, Rice [19]: 0; Pigweed plant response rating (0 to 100 scale) [20]: 0; Pigweed plant response rating [20]: 0
Cc1ccc(Oc2ncc(Cl)cn2)c(-n2cc(Br)cn2)c1Br [Compound 202]	0	0	0	0	0	20	0	0	0	70	0	0	10	30	10	70	0	10	0	0	Crabgrass, Large plant response rating (0 to 100 scale) [6]: 40; Wheat plant response rating (0 to 100 scale) [12]: 0; Wheat plant response rating [12]: 0; Velvetleaf plant response rating (0 to 100 scale) [13]: 0; Velvetleaf plant response rating [13]: 0; Pigweed plant response rating [14]: 30; Plant response rating, Pigweed [14]: 50; Plant response rating, Sedge, Umbrella [15]: 10; Plant response rating, Ducksalad [16]: 30; Crabgrass, Large plant response rating [17]: 10; Plant response rating, Crabgrass, Large [17]: 50; Velvetleaf plant response rating [18]: 50; Plant response rating, Velvetleaf [18]: 70; Plant response rating, Rice [19]: 0; Pigweed plant response rating (0 to 100 scale) [20]: 0; Pigweed plant response rating [20]: 0
